Laboratory results taken from patent US10925867B2, “Immunotherapeutic dosing regimens comprising pomalidomide and an anti-CS1 antibody for treating cancer” (Bristol-Myers Squibb Company, priority 2015, dated 2021).
Marks after values point to notes of the source that are not given here.

Key:
[1] = Infusion reactions in Study CA204004; format: in vivo, human
Description: (§1) Elotuzumab can cause infusion reactions. Infusion reactions were reported in approximately 10% of patients treated with elotuzumab, lenalidomide and dexamethasone in Study CA204004 and in 7% of patients treated with elotuzumab, bortezomib and dexamethasone in Study CA204009. All reports of infusion reaction were ≤Grade 3. Grade 3 infusion reactions occurred in 1% of patients in Study CA204004 and in no patients in Study CA204009. The most common symptoms of an infusion reaction included fever, chills and hypertension. In Study CA204004, 5% of patients required interruption of the administration of elotuzumab due to infusion reaction for a median of 25 minutes and 1% of patients discontinued due to infusion reactions. In Study CA204009, 20% of patients required interruption of the administration of elotuzumab for a median of 40 minutes and none discontinued due to infusion reactions. Of the patients who experienced an infusion reaction, 70% (23/33) in Study CA204004 and 80% (4/5) in Study CA204009 had them during the first dose.

[2] = Infusion reactions in Study CA204009; format: in vivo, human
Description: as §1
(§2) The maximum infusion rate of 2 ml/min was initially explored in the phase 1 and 2 elotuzumab clinical trials. However, the phase 2 portion of the CA204003 (1703) and the CA204009 studies allowed an infusion rate escalation in subjects without infusion reactions for a minimum of 4 cycles of study therapy at 2 ml/min. The infusion rates are allowed to increase by 1 ml/min per cycle, up to 5 ml/min.
(§3) Preliminary safety data of the 5 ml/minute infusion rate are based on an analysis of subjects who escalated the elotuzumab infusion to 5 ml/minute in the CA204003 (1703) and CA204009 studies. In the phase 2 portion of the CA204003 (1703) study, 33% of all study infusions and 42.5% of subjects received infusions at 5 ml/min. In subjects who were administered infusions ≤2 ml/min, there were 7 grade 1-2 infusion reactions, and 1 grade 3-4 infusion reaction. […] In the randomized phase 2 CA204009 study, 27% of all subjects and 9% of all infusions on the investigational arm received infusions at 5 ml/min.

[3] = Infusion reactions by infusion rate, phase 2 portion of CA204003 (1703); format: in vivo, human
Experimental: as §2, §3

[4] = Study CA204112, elotuzumab administration in <1 hour (5 ml/min); format: in vivo, human; conditions: infusion rate escalated to 5 ml/min by the third dose; with lenalidomide/dexamethasone
Experimental: Preliminary data are available for an ongoing study CA204112 with elotuzumab administration in <1 hour (5 ml/min) combined with lenalidomide/dexamethasone in newly diagnosed and relapsed/refractory myeloma. In this trial, the infusion rate was escalated to 5 ml/min by the third elotuzumab dose.

[5] = tested on: relapsed or refractory multiple myeloma; conditions: with lenalidomide and low-dose dexamethasone; 10 mg/kg dose; cited from earlier work
NK cells = conditions: independent of the Fc portion of the antibody; cited from earlier work
OPM2 xenograft = assay: Efficacy dose titration of pomalidomide in OPM2 xenograft; format: in vivo; conditions: for LCK (Log cell kill) / Median Days to Target Size / TGI (Tumor growth inhibition) / Weight Change % / CR (Complete regression) / PR (Partial regression): d14, 21; for CR (Complete regression) / PR (Partial regression): mice of 8; for effect on tumor growth (in words): pomalidomide 0.5, 5 and 50 mg/kg orally
Experimental: FIG. 1. Antitumor Activity of pomalidomide treatment on OPM2 Multiple Myeloma Xenograft. Pomalidomide was administered at either 0.5 mg/kg, 5 mg/kg, or 50 mg/kg. […] Group one was left untreated (control, circles), group two treated with pomalidomide (50 mg/kg, triangles), group three treated with pomalidomide (5 mg/kg, squares), group four treated with pomalidomide (0.5 mg/kg, diamonds). All treatment sets were dosed daily for 5 days orally starting on d14 and then again for 5 days on d21. The data are presented as means+/−standard deviation. From this experiment the suboptimal 5 mg/kg dose was chosen as the dose to use in combination studies with elotuzumab and/or dexamethasone. […]
To assess the effect of pomalidomide treatment on the growth of the OPM2 xenograft, scid mice with established tumors were treated orally with pomalidomide at doses of 0.5 mg/kg, 5 mg/kg and 50 mg/kg. […] From this experiment the suboptimal 5 mg/kg dose was chosen as the dose to use in the combination studies (Study #1, OPM2-15 and Study #2, OPM2-16).

multiple myeloma = conditions: Ph II, patients administered pomalidomide; cited from earlier work
[6] = tested on: relapsed and refractory multiple myeloma; conditions: MM-002, cited from earlier work
[7] = pomalidomide 0.5 mg/kg PO QD × 5
[8] = pomalidomide 50 mg/kg PO QD × 5

Molecule: Elotuzumab: humanized monoclonal IgG1 antibody directed against CS-1; VL SEQ ID NO:1, VH SEQ ID NO:2
- median duration of interruption [1]: 25 min
- patients discontinued due to infusion reactions [1]: 1%
- patients requiring interruption of administration due to infusion reaction [1]: 5%
- patients with Grade 3 infusion reactions [1]: 1%
- patients with infusion reaction who had it during the first dose [1]: 70%
- patients with infusion reactions ([1]; with lenalidomide and dexamethasone): approximately 10%
- median duration of interruption [2]: 40 min
- patients discontinued due to infusion reactions [2]: none
- patients requiring interruption of administration [2]: 20%
- patients with Grade 3 infusion reactions [2]: no patients
- patients with infusion reaction who had it during the first dose [2]: 80%
- infusion reactions ([2]; subjects reaching infusion rates >2 ml/min): no infusion reactions of any grade
- patients with infusion reactions ([2]; with bortezomib and dexamethasone): 7%
- grade 3-4 infusion reactions ([3]; infusion rates >2 ml/min): no grade 3-4 infusion reactions
- number of grade 1-2 infusion reactions ([3]; infusion rates >2 ml/min): 1
- number of grade 1-2 infusion reactions ([3]; infusions ≤2 ml/min): 7
- number of grade 3-4 infusion reactions ([3]; infusions ≤2 ml/min): 1
- frequency of infusion reactions [4]: no increased frequency of infusion reactions
- PFS [5]: 33 month
- response rate [5]: 92%
- NK cell activation (NK cells): activate NK cells by up-regulation of CD69 and granzyme B expression

Molecule: Nc1cccc2c1C(=O)N(C1CCC(=O)NC1=O)C2=O (racemic) [Pomalidomide, (RS)-4-amino-2-(2,6-dioxo-piperidin-3-yl)-isoindole-1,3-dione]
- LCK (Log cell kill) (OPM2 xenograft; [7]): 0.19^g
- Median Days to Target Size (OPM2 xenograft; [7]): 25 days
- TGI (Tumor growth inhibition) (OPM2 xenograft; [7]): 45%
- Weight Change % (OPM2 xenograft; [7]): 9.3%
- CR (Complete regression) (OPM2 xenograft; [7]): 0/8
- PR (Partial regression) (OPM2 xenograft; [7]): 0/8
- LCK (Log cell kill) (OPM2 xenograft; pomalidomide 5 mg/kg PO QD × 5): 0.59^f
- Median Days to Target Size (OPM2 xenograft; pomalidomide 5 mg/kg PO QD × 5): 29 days
- TGI (Tumor growth inhibition) (OPM2 xenograft; pomalidomide 5 mg/kg PO QD × 5): 63.1%
- Weight Change % (OPM2 xenograft; pomalidomide 5 mg/kg PO QD × 5): 3.2%
- CR (Complete regression) (OPM2 xenograft; pomalidomide 5 mg/kg PO QD × 5): 0/8
- PR (Partial regression) (OPM2 xenograft; pomalidomide 5 mg/kg PO QD × 5): 0/8
- LCK (Log cell kill) (OPM2 xenograft; [8]): 1.0^e
- Median Days to Target Size (OPM2 xenograft; [8]): 33 days
- TGI (Tumor growth inhibition) (OPM2 xenograft; [8]): 87.1%
- Weight Change % (OPM2 xenograft; [8]): 4.7%
- CR (Complete regression) (OPM2 xenograft; [8]): 0/8
- PR (Partial regression) (OPM2 xenograft; [8]): 1/8
- effect on tumor growth (in words) (OPM2 xenograft): suppressed tumor growth in a dose-dependent fashion
- effect on tumor growth (in words) (OPM2 xenograft; listed as pomalidomide): inhibited tumor growth in a dose-dependent fashion
- median progression free survival (multiple myeloma): 11.6 months
- overall response rate (multiple myeloma): 63%
- patients achieving VGPR or CR (multiple myeloma): 33%
- Grade 3/4 anemia [6]: 24%
- Grade 3/4 neutropenia [6]: 48%
- Grade 3/4 thrombocytopenia [6]: 22%
- ORR (≥PR) [6]: 18%
- fatigue [6]: 11%
- frequency of febrile neutropenia [6]: 5%
- incidence of DVT [6]: 3%
- median OS [6]: 13.6 months
- median response duration [6]: 10.7 months
- pneumonia [6]: 15%
- median PFS ([6]; pomalidomide 4 mg/day d1-21 of 28, dexamethasone 40 mg/week, median follow-up 14.2 months): 2.7 months
